Consider one compound from US20220378763A1, “COMPOUND FOR TREATMENT OF ACUTE INFLAMMATION IN THE MYOCARDIUM” (CALPROTECT AB, priority 2019, published 2022).

Assay [1] deals with C57BL/6 mice with MI induced by permanent coronary artery ligation. Briefly: Flow cytometry of myeloid cells and BrdU incorporation on day 2 post-MI. The assay is classed as in vivo, mouse. As to the method: Immune cells from blood, spleen, heart and bone-marrow were collected at 2 or 7 days post-MI, and analysed by flow-cytometry. Mice were anesthetized by intraperitoneal injection of a mixture of xylazine (10 mg/kg) and ketamine (100 mg/kg). After 10 minutes, blood was collected by cardiac punction. Thereafter, the spleen was removed and the heart was perfused with 5 ml ice-cold PBS. Perfused hearts were excised and collected into tubes with PBS and kept on ice. Femurs and tibias from each mouse were used to obtain whole bone marrow for analysis. Blood was stained with fluorochrome-labelled antibodies against mouse monocyte and neutrophil markers diluted in MACS buffer (PBS, 10% FCS and 0.5% BSA), followed by treatment with erythrocyte lysis buffer, washing and analysis. Spleens were mashed trough a cell strainer in ice-cold PBS. Hearts were cut into small pieces and placed into tubes containing 2.5 ml digestion cocktail (Collagenase I, 450 U/ml; Collagenase XI, 125 U/ml; DNAase I, 60 U/ml; Hyaluronidase type 1-5, 60 U/ml diluted in PBS containing Ca and Mg) incubated for 1 h at 37° C. with shaking at 220 rpm. Bone marrow was flushed from femur and tibia using ice-cold PBS. Cell suspensions from spleen, heart and bone marrow were filtered through a 40 um cell strainer (BD), treated with erythrocyte lysis buffer, washed and stained. For intracellular staining, cells were fixed, permeabilized and stained. Cell populations were analyzed by flow cytometry in a Gallios Flow Cytometer (Backman Coulter), and the results were analyzed using FlowJo (FlowJo®, LLC; Tree Star). The following anti-mouse antibodies were used for the flow cytometric analysis: anti-CD45 (30-F11), anti-CD11b (M1/70), anti-Ly6C (HK1.4), anti-CD115 (AFS98), anti-Ly6G (1A8), anti-F4/80 (BM8), anti-CCR2 (475301), anti-Ter119 (TER119), anti-Gr1 (RB6-8C5), anti-CD45R/B220 (RA3-6B2), anti-CD3ξ (145-2C11), anti-NK1.1 (PK136), anti-Ly6A/E (Sca-1) (E13-1617), anti-CD117 (c-kit) (2B8), anti-CD48 (HM48.1), anti-CD150/SLAM (TC15-12F12.2), anti-CD16/32 (93), anti-CD34 (MEC14.7) (all from BioLegend, San Diego, Calif., USA); anti-MerTK (DSSMMER) and anti-Nur77 (12.14) (eBioscience).
Mice were injected intraperitoneally with 1 mg BrdU 24 hours prior to organ harvest. Intracellular BrdU staining was performed in hematopoietic stem cells collected from the bone marrow using BrdU flow kits (BD Pharmigen™), according to the manufacturer instructions. BrdU expression was analysed by flow cytometry.
Neutrophilia and monocytosis, elevated circulating numbers of neutrophils and monocytes, have been associated with an adverse prognosis in MI patients. We studied the effects of S100A9 blockade on myeloid cell populations in blood, heart, and myeloid organs on day 2 post-MI, at the peak of the acute inflammatory period. The gating strategy is described in FIG. 8.
(In flow cytometry, cells or beads pass a laser one at a time.)

The subject of assay [2] is Nur77 in bone marrow-derived monocytes. Briefly: Nur77 expression in cultured bone marrow-derived monocytes stimulated with S100A9. The assay is classed as cell-based, mouse. The settings on record: S100A9 20 μg/mL, ABR-238901 100 μM, 24 h. As to the method:
To obtain bone marrow-derived monocytes, bone marrow cells were isolated from femur and tibia of wild-type mice (C57BL/6NRJ) (n=3). Cells were cultured in RPMI-1640 (GIBCO Invitrogen) with 100 U/ml penicillin/streptomycin (GIBCO Invitrogen), 10% heat-inactivated fetal calf serum (FCS; GIBCO Invitrogen) and 20 ng/ml M-CSF (Peprotech) for 3 days. On day 3, unattached cells were collected, and the monocyte phenotype was confirmed by flow cytometry as CD45^+CD11b^+CD115^+ cells. The cells were re-suspended in medium and seeded at a density of 1×10^5 cells/ml. Extracellular S100A9 (20 μg/mL) with or without the S100A9 antagonist ABR-238901 at a concentration of 100 μM were incubated in the presence of 10 μM ZnCl2 (Sigma) and 2 mM CaCl2 for 15 minutes and added to the monocyte culture. Recombinant human endotoxin-free S100A9 protein was provided by Active Biotech AB. Following 24 h stimulation, intracellular Nur77 expression was analysed by flow cytometry.

Assay [3] relates to C57BL/6 mice with MI induced by permanent coronary artery ligation. Nature of the assay: S100A8/A9 in plasma (ELISA) and myocardium (immunohistochemistry) 3 days post-MI. The format is in vivo, mouse. As to the method: Subsequently the hearts were fixed in 4% (w/v) paraformaldehyde and embedded in paraffin. The hearts were sectioned transversely from the apex to the level of the suture, and 6 μm thick sections were collected at 390 μm intervals. The sections were mounted on glass slides and stained with Van Gieson or Masson trichrome stain for quantitative analysis of scar size. Alarmin S100A8/A9 was detected using mouse anti-S100A8/A9 IgG1 antibody (Abcam, ab 130234, 1:100 dilution, O/N 4° C.). Goat anti-mouse IgG1 HRP-conjugated secondary antibody (Abcam, ab 97240, 1 h RT) was used and the staining was developed with ImmPACT™ DAB (Vector, SK-4105) chromogen as substrate. The slides were subsequently scanned using an Aperio digital pathology slide scanner (Leica Biosystems), and images were captured with the ImageScope software (Leica Biosystems). Left ventricle area and the infarcted area were measured on each section by using the BioPix iQ 2.5.0 software (Biopix AB). The size of the post-MI myocardial scar was expressed as percentage of the left ventricle volume below the coronary ligature.
Plasma levels of S100A8/A9 heterodimer was measured by DuoSet®ELISA (R&D Systems, DY8596-05), according to manufacturer instructions. All the samples were diluted 1:100 prior to analysis. Biotinylated goat anti-mouse S100A8/A9 antibody was used as […] antibody and streptavidin-HRP was used for detection. […]
In general terms: ELISA stands for enzyme-linked immunosorbent assay.

With `COc1ncc(S(=O)(=O)Nc2cncc(Cl)c2O)cc1Br` [ABR-238901, 5-bromo-N-(5-chloro-4-hydroxypyridin-3-yl)-6-methoxypyridine-3-sulfonamide], the “Number of Ly6Chi monocytes in the bone marrow” value in assay [1] (2 days treatment post-MI) is given as “increased”. Further, in assay [1] (bone marrow, 24 h after BrdU), the “Numbers of proliferating BrdU+ Lin−Sca+Kit+CD150+CD48− hematopoietic stem cells” value is listed as “reduced”. For the same compound, in assay [1] (day 2 post-MI), the “Numbers of macrophages in the heart” value is reported as “lower”, the “Numbers of monocytes in the bone marrow” value is “significantly higher”, the “Numbers of monocytes in the spleen” value is listed as “did not have a significant effect” and the “Numbers of neutrophils in the spleen” value is reported as “did not have a significant effect”. In addition, in assay [1] (day 2 post-MI, vs MI control), the “Neutrophil counts in the bone marrow” value is reported as “highly increased”, the “Numbers of neutrophils in blood” value is given as “significantly lowered” and the “Numbers of neutrophils in myocardium” value was “significantly lowered”. The “S100A9-induced increase of Nur77 expression” value in assay [2] is “inhibited”. Besides, the “Plasma levels of S100A8/A9” value in assay [3] (ELISA) is given as “reduced”. For the same compound, the “S100A8/A9 presence in the infarcted myocardium” value in assay [3] (immunohistochemical staining) is “reduced”.
